{
  "source": "ChEMBL document CHEMBL1153670",
  "about": "(Bioorg Med Chem Lett, 1995)",
  "key": {"M109 [1]": {"system": "M109", "assay": "In vivo cytotoxicity of intraperitoneally administered compound at dose 50 mgkg/inj was determined against ip implanted murine M-109 lung carcinoma", "format": "organism-based", "set-up": "dose mgkg, route intraperitoneal", "conditions": "mouse"}, "HCT-116 [2]": {"system": "HCT-116", "assay": "cells", "conditions": "Homo sapiens"}, "HCT-116 [3]": {"system": "HCT-116", "assay": "In vitro cytotoxicity was determined by inhibition against HCT116 cell line proliferation after 72 hours of incubation", "format": "cell-based", "conditions": "Homo sapiens, HCT-116, 72 h"}, "HCT-116 [4]": {"system": "HCT-116", "assay": "Potency relative to paclitaxel in a tubulin polymerization assay in HCT116 cell line", "format": "functional, Homo sapiens"}, "M109 [5]": {"system": "M109", "assay": "In vivo cytotoxicity of intraperitoneally administered compound at dose 3 mg/kg/inj was determined against ip implanted murine M-109 lung carcinoma", "format": "organism-based", "set-up": "route intraperitoneal", "conditions": "mouse"}, "M109 [6]": {"system": "M109", "assay": "In vivo cytotoxicity of intraperitoneally administered compound at dose 1.6 mg/kg/inj was determined against ip implanted murine M-109 lung carcinoma", "format": "organism-based", "set-up": "route intraperitoneal", "conditions": "mouse"}, "M109 [7]": {"system": "M109", "assay": "In vivo cytotoxicity of intraperitoneally administered compound at dose 16 mg/kg/inj was determined against ip implanted murine M-109 lung carcinoma", "format": "organism-based", "set-up": "route intraperitoneal", "conditions": "mouse"}, "M109 [8]": {"system": "M109", "assay": "In vivo cytotoxicity of intraperitoneally administered compound at dose 32 mg/kg/inj was determined against ip implanted murine M-109 lung carcinoma", "format": "organism-based", "set-up": "route intraperitoneal", "conditions": "mouse"}, "M109 [9]": {"system": "M109", "assay": "In vivo cytotoxicity of intraperitoneally administered compound at dose 25 mgkg/inj was determined against ip implanted murine M-109 lung carcinoma", "format": "organism-based", "set-up": "dose mgkg, route intraperitoneal", "conditions": "mouse"}},
  "data": [
    {"smiles": "COC(=O)O[C@@]12CO[C@@H]1C[C@H](O)[C@@]1(C)C(=O)[C@H](OC(C)=O)C3=C(C)[C@@H](OC(=O)[C@H](O)C(NC(=O)c4ccccc4)c4ccccc4)C[C@@](O)([C@@H](OC(=O)c4ccccc4)C12)C3(C)C", "note": "(some centres undefined)", "values": [
      {"measurement": "T/C", "setting": "M109 [1]", "value": 161, "unit": "%"},
      {"measurement": "IC50", "setting": "HCT-116 [2]", "value": 0.5, "unit": "nM"},
      {"measurement": "IC50", "setting": "HCT-116 [3]", "value": 2, "unit": "nM"},
      {"measurement": "Tubulin polymerization ratio", "setting": "HCT-116 [4]", "value": 0.41}
    ]},
    {"smiles": "CC(=O)O[C@H]1C(=O)[C@@]2(C)C([C@H](OC(=O)c3ccccc3)[C@]3(O)C[C@H](OC(=O)[C@H](O)C(NC(=O)c4ccccc4)c4ccco4)C(C)=C1C3(C)C)[C@]1(OC(=O)C3CC3)CO[C@@H]1C[C@@H]2O", "note": "(some centres undefined)", "values": [
      {"measurement": "IC50", "setting": "HCT-116 [2]", "value": 0.22, "unit": "nM"},
      {"measurement": "T/C", "setting": "M109 [5]", "value": 132, "unit": "mg kg-1 injection-1"},
      {"measurement": "IC50", "setting": "HCT-116 [3]", "value": 0.9, "unit": "nM"},
      {"measurement": "Tubulin polymerization ratio", "setting": "HCT-116 [4]", "value": 0.33}
    ]},
    {"smiles": "CC(=O)O[C@H]1C(=O)[C@@]2(C)C([C@H](OC(=O)c3ccccc3)[C@]3(O)C[C@H](OC(=O)[C@H](O)C(NC(=O)OC(C)(C)C)c4ccccc4)C(C)=C1C3(C)C)[C@]1(OC(=O)C3CC3)CO[C@@H]1C[C@@H]2O", "note": "(some centres undefined)", "values": [
      {"measurement": "IC50", "setting": "HCT-116 [2]", "value": 0.2, "unit": "nM"},
      {"measurement": "IC50", "setting": "HCT-116 [3]", "value": 0.8, "unit": "nM"},
      {"measurement": "T/C", "setting": "M109 [6]", "value": 115, "unit": "%"},
      {"measurement": "Tubulin polymerization ratio", "setting": "HCT-116 [4]", "value": 0.22}
    ]},
    {"smiles": "CC(=O)O[C@H]1C(=O)[C@@]2(C)C([C@H](OC(=O)c3ccccc3)[C@]3(O)C[C@H](OC(=O)[C@H](O)C(NC(=O)c4ccccc4)c4ccco4)C(C)=C1C3(C)C)[C@]1(OC(=O)C3CCC3)CO[C@@H]1C[C@@H]2O", "note": "(some centres undefined)", "values": [
      {"measurement": "IC50", "setting": "HCT-116 [2]", "value": 0.4, "unit": "nM"},
      {"measurement": "T/C", "setting": "M109 [7]", "value": 188, "unit": "mg kg-1 injection-1"},
      {"measurement": "IC50", "setting": "HCT-116 [3]", "value": 1.6, "unit": "nM"},
      {"measurement": "Tubulin polymerization ratio", "setting": "HCT-116 [4]", "value": 0.29}
    ]},
    {"smiles": "COC(=O)O[C@@]12CO[C@@H]1C[C@H](O)[C@@]1(C)C(=O)[C@H](OC(C)=O)C3=C(C)[C@@H](OC(=O)[C@H](O)C(NC(=O)OC(C)(C)C)c4ccco4)C[C@@](O)([C@@H](OC(=O)c4ccccc4)C12)C3(C)C", "note": "(some centres undefined)", "values": [
      {"measurement": "IC50", "setting": "HCT-116 [2]", "value": 0.4, "unit": "nM"},
      {"measurement": "IC50", "setting": "HCT-116 [3]", "value": 1.6, "unit": "nM"},
      {"measurement": "T/C", "setting": "M109 [8]", "value": 183, "unit": "%"},
      {"measurement": "Tubulin polymerization ratio", "setting": "HCT-116 [4]", "value": 0.66}
    ]},
    {"smiles": "CCCC(=O)O[C@@]12CO[C@@H]1C[C@H](O)[C@@]1(C)C(=O)[C@H](OC(C)=O)C3=C(C)[C@@H](OC(=O)[C@H](O)C(NC(=O)c4ccccc4)c4ccccc4)C[C@@](O)([C@@H](OC(=O)c4ccccc4)C12)C3(C)C", "note": "(some centres undefined)", "values": [
      {"measurement": "T/C", "setting": "M109 [9]", "value": 164, "unit": "mg kg-1 injection-1"},
      {"measurement": "IC50", "setting": "HCT-116 [2]", "value": 0.25, "unit": "nM"},
      {"measurement": "IC50", "setting": "HCT-116 [3]", "value": 1.1, "unit": "nM"},
      {"measurement": "Tubulin polymerization ratio", "setting": "HCT-116 [4]", "value": 0.61}
    ]}
  ]
}
